# Source: PMC7704495 (Pharmacological Reports, 2020)
# Assays:
# [1] = patients; cited from earlier work
# CYP1A2 [2] = target: T1, CYP1A2 (Homo sapiens, UniProt P05177); assay: CYP1A2 inhibition, caffeine 3-N-demethylation in pooled human liver microsomes; assay type: in vitro ADME; settings: for type of inhibition: Lineweaver–Burk; for Ki: caffeine 3-N-demethylation
# T1 construct: purchased Corning (Woburn, USA); host or cells: baculovirus-infected insect cells
# T1 sequence (P05177 1-516): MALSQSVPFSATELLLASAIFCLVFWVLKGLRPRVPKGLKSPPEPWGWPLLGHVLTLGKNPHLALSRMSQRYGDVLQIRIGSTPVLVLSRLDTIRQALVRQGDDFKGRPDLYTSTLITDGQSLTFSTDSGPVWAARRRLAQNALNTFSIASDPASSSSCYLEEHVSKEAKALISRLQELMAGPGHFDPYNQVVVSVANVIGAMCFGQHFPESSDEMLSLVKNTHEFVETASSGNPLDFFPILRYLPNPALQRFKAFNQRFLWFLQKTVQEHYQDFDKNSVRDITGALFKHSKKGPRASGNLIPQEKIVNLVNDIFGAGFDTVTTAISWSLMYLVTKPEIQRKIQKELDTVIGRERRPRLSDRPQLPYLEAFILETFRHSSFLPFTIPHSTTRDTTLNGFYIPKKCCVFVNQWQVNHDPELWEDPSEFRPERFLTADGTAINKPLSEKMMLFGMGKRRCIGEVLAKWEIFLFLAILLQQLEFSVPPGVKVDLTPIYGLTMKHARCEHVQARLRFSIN
# Procedure: (§1) The following probe reactions were applied, according to the methods previously described: caffeine 3-N-demethylation for CYP1A2 (caffeine 200, 400 and 800 µM), diclofenac 4′-hydroxylation for CYP2C9 (diclofenac 5, 10, 25 µM), perazine N-demethylation for CYP2C19 (perazine 50, 100, 200 µM), bufuralol 1′-hydroxylation for CYP2D6 (bufuralol 10, 25, 50 µM), and testosterone 6β-hydroxylation for CYP3A4 (50, 100 and 200 µM). Incubation systems for CYP2C9, 2C19 and 3A4 contained: 50 mM TRIS/KCL buffer (pH = 7.4), NADPH generating system (1 mM NADP, 5 mM glucose 6-phosphate, 1.7 U/ml glucose 6-phosphate dehydrogenase, 1 mM EDTA and 3 mM MgCl2). Incubation mixture for CYP1A2 included: 0.15 M phosphate buffer (pH = 7.4) and 1 mM NADPH, and for CYP2D6: 0.1 M TRIS/KCL buffer (pH = 7.4), NADPH generating system (1.3 mM NADP, 3.3 mM glucose 6-phosphate, 1 U/ml glucose 6-phosphate dehydrogenase and 3.3 mM MgCl2). The appropriate concentrations of human liver microsomes (0.5 mg/ml for each reaction) or supersomes (50 pmol CYP/ml), various concentrations of a probe substrate in the absence or presence of neuroleptic (concentrations: 0.1, 0.5, 1, 5, 10 µM) were added, The final volume of the reaction mixture was 0.5 ml. The incubation time for supersomes was 30 min (for each reaction) and for liver microsomes: 30 min (diclofenac 4′-hydroxylation and bufuralol 1′-hydroxylation), 20 min (perazine N-demethylation and testosterone 6β-hydroxylation) or 50 min (caffeine 3-N-demethylation). After the reactions had been stopped, the concentrations of specific substrates and their metabolites formed in liver microsomes or supersomes were assessed by the HPLC method with UV detection (or fluorimetric detection for CYP2D6), as described previously.
# (§2) Kinetic parameters (Km, Vmax, Ki) describing the course of CYP-specific reactions in liver microsomes or supersomes were obtained using the Michaelis–Menten approach and a non-linear regression analysis (Program Sigma Plot 12.3 Enzyme Kinetics).
# [3] = lipophilicity; cited from earlier work
# CYP2C19 [4] = target: T2, CYP2C19 (Homo sapiens, UniProt P33261); assay: CYP2C19 inhibition, perazine N-demethylation in cDNA-expressed CYP2C19 (supersomes); assay type: in vitro ADME; settings: for type of inhibition: Lineweaver–Burk; for Ki: perazine N-demethylation
# Procedure: as §1, §2
# CYP2C19 [5] = target: T2, CYP2C19; assay: CYP2C19 inhibition, perazine N-demethylation in pooled human liver microsomes; assay type: in vitro ADME; parameters: a Human liver microsomes; tissue Corning (Woburn, USA); host or cells: pooled human liver microsomes; settings: for type of inhibition: Lineweaver–Burk; for Ki: perazine N-demethylation
# Procedure: as §1, §2
# CYP2D6 [6] = target: T3, CYP2D6 (Homo sapiens, UniProt P10635); assay: CYP2D6 inhibition, bufuralol 1′-hydroxylation in cDNA-expressed CYP2D6 (supersomes); assay type: in vitro ADME; settings: for type of inhibition: Lineweaver–Burk; for Ki: bufuralol 1′-hydroxylation
# Procedure: as §1, §2
# CYP2C9 [7] = target: T4, CYP2C9 (Homo sapiens, UniProt P11712); assay: CYP2C9 inhibition, diclofenac 4′-hydroxylation in pooled human liver microsomes; assay type: in vitro ADME; settings: for type of inhibition: Lineweaver–Burk
# T4 construct: purchased Corning (Woburn, USA); host or cells: baculovirus-infected insect cells
# Procedure: as §1, §2
# CYP2C9 [8] = target: T4, CYP2C9; assay: CYP2C9 inhibition, diclofenac 4′-hydroxylation in cDNA-expressed CYP2C9 (supersomes); assay type: in vitro ADME; settings: for type of inhibition: Lineweaver–Burk
# Procedure: as §1, §2
# CYP3A4 [9] = target: T5, CYP3A4 (Homo sapiens, UniProt P08684); assay: CYP3A4 inhibition, testosterone 6β-hydroxylation in cDNA-expressed CYP3A4 (supersomes)
# Procedure: as §1, §2
# CYP3A4 [10] = target: T5, CYP3A4; assay: CYP3A4 inhibition, testosterone 6β-hydroxylation in pooled human liver microsomes
# Procedure: as §1, §2
# CYP1A2 [11] = target: T1, CYP1A2; assay: CYP1A2 inhibition, caffeine 3-N-demethylation in cDNA-expressed CYP1A2 (supersomes); assay type: in vitro ADME; settings: for type of inhibition: Lineweaver–Burk; for Ki: caffeine 3-N-demethylation
# Procedure: as §1, §2
# CYP2D6 [12] = target: T3, CYP2D6; assay: CYP2D6 inhibition, bufuralol 1′-hydroxylation in pooled human liver microsomes; assay type: in vitro ADME; parameters: a Human liver microsomes; tissue Corning (Woburn, USA); host or cells: pooled human liver microsomes; settings: for type of inhibition: Lineweaver–Burk; for Ki: bufuralol 1′-hydroxylation
# Procedure: as §1, §2
# T5 sequence (P08684 whole entry): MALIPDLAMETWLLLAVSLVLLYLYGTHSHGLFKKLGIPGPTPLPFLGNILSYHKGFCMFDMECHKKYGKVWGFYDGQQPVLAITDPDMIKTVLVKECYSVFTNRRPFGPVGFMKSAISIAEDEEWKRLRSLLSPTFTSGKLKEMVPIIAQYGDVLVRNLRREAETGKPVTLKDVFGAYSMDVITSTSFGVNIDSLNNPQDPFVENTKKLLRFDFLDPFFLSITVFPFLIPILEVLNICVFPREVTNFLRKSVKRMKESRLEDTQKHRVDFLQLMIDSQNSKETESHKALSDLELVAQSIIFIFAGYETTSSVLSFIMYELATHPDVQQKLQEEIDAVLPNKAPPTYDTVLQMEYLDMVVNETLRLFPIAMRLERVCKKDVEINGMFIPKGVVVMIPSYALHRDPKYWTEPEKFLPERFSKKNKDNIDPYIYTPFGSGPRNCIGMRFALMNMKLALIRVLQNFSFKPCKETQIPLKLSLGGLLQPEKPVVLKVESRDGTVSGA
# T3 sequence (P10635 whole entry): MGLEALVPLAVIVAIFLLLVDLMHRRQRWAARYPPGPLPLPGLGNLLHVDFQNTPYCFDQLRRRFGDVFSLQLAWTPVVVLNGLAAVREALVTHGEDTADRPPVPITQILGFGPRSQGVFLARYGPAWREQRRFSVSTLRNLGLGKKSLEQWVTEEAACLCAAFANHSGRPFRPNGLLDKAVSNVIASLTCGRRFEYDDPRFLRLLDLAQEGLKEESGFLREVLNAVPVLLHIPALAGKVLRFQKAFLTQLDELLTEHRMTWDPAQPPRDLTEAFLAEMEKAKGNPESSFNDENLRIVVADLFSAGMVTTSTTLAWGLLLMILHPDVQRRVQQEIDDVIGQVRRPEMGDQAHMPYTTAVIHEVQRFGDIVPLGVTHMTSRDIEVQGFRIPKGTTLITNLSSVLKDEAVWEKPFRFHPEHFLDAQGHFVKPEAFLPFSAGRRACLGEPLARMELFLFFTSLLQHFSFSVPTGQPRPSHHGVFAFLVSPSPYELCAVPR
# T2 sequence (P33261 whole entry): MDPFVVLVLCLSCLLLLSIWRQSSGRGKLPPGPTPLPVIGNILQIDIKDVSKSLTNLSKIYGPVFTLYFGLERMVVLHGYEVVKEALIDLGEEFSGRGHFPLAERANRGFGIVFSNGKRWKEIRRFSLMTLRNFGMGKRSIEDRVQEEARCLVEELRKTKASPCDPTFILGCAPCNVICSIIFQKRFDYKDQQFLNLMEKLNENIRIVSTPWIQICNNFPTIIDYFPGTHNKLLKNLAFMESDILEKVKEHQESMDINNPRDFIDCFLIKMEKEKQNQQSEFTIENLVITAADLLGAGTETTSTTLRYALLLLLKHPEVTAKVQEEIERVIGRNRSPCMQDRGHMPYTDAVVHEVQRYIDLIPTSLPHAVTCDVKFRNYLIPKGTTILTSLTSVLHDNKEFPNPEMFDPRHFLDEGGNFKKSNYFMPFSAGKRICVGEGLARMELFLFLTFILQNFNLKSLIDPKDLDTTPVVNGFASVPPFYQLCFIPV
# T4 sequence (P11712 whole entry): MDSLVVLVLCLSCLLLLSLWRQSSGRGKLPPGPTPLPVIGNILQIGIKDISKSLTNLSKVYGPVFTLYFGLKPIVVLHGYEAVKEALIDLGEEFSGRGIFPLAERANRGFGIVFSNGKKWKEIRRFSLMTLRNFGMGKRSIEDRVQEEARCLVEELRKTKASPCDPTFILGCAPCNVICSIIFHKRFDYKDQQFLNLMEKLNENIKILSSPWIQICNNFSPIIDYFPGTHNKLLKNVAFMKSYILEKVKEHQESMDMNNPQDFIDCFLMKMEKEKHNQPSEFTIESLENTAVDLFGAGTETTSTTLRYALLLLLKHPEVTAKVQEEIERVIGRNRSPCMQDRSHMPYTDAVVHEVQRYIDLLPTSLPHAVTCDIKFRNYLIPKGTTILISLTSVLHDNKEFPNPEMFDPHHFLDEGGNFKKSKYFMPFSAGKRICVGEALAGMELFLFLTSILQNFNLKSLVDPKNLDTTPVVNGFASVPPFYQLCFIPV
Compound,therapeutic plasma concentration [1],type of inhibition (CYP1A2 [2]),Ki (CYP1A2 [2]),log P [3],type of inhibition (CYP2C19 [4]),Ki (CYP2C19 [4]),type of inhibition (CYP2C19 [5]),Ki (CYP2C19 [5]),type of inhibition (CYP2D6 [6]),Ki (CYP2D6 [6]),type of inhibition (CYP3A4 [9]),"type of inhibition (CYP3A4 [9]; human, 30 min, pH 7.4)",type of inhibition (CYP3A4 [10]),"type of inhibition (CYP3A4 [10]; human, 20 min, pH 7.4)",type of inhibition (CYP1A2 [11]),Ki (CYP1A2 [11]),type of inhibition (CYP2D6 [12]),Ki (CYP2D6 [12]),other results
"O=C1[C@@H]2[C@H]3CC[C@H](C3)[C@@H]2C(=O)N1C[C@@H]1CCCC[C@H]1CN1CCN(c2nsc3ccccc23)CC1 [Lurasidone, lurasidone]",≤ 1.2 µM,Mixed,12.6 µM,5.6,Mixed,18.4 µM,Mixed,18 µM,Competitive,85 µM,competitive,Competitive,competitive,Competitive,Mixed,15.5 µM,Competitive,37.5 µM,"type of inhibition (CYP1A2 [2]; listed as lurasidone): mixed; type of inhibition (CYP2C19 [4]; listed as lurasidone): mixed; type of inhibition (CYP2C19 [5]; listed as lurasidone): mixed; type of inhibition (CYP2D6 [6]; listed as lurasidone): competitive; type of inhibition (CYP2C9 [7]; CYP2C9, liver microsomes): Mixed; type of inhibition (CYP2C9 [7]; CYP2C9, liver microsomes, listed as lurasidone): mixed; Ki (CYP2C9 [7]; CYP2C9, liver microsomes, diclofenac 4′-hydroxylation): 18 µM; type of inhibition (CYP2C9 [8]; CYP2C9, supersomes): Mixed; type of inhibition (CYP2C9 [8]; CYP2C9, supersomes, listed as lurasidone): mixed; Ki (CYP2C9 [8]; CYP2C9, supersomes, diclofenac 4′-hydroxylation): 3.5 µM; Ki (CYP3A4 [9]): 9.1 µM; Ki (CYP3A4 [10]): 29.4 µM; type of inhibition (CYP1A2 [11]; listed as lurasidone): mixed; type of inhibition (CYP2D6 [12]; listed as lurasidone): competitive"
"COc1cc(C(C)=O)ccc1OCCCN1CCC(c2noc3cc(F)ccc23)CC1 [Iloperidone, iloperidone]",up to 0.2 μM,Mixed,45 µM,4.43,Mixed,32 µM,Mixed,6.5 µM,Competitive,10 µM,noncompetitive,Noncompetitive,noncompetitive,Noncompetitive,Mixed,31 µM,Competitive,2.9 µM,"type of inhibition (CYP1A2 [2]; listed as iloperidone): mixed; type of inhibition (CYP2C19 [4]; listed as iloperidone): mixed; type of inhibition (CYP2C19 [5]; listed as iloperidone): mixed; type of inhibition (CYP2D6 [6]; listed as iloperidone): competitive; Ki at 30 min (CYP2C9 [7]; human, pooled human liver microsomes, pH 7.4, probe diclofenac (4′-hydroxylation), CYP2C9, liver microsomes, diclofenac 4′-hydroxylation): > 10 µM; effect on the activity of CYP2C9 (CYP2C9 [7]; liver microsomes, neuroleptic 0.1-10 µM): did not affect; Ki at 30 min (CYP2C9 [8]; human, pH 7.4, probe diclofenac (4′-hydroxylation), CYP2C9, supersomes, diclofenac 4′-hydroxylation): > 10 µM; effect on the activity of CYP2C9 (CYP2C9 [8]; supersomes, neuroleptic 0.1-10 µM): did not affect; type of inhibition (CYP1A2 [11]; listed as iloperidone): mixed; type of inhibition (CYP2D6 [12]; listed as iloperidone): competitive"
